Data published in patent publication US20250205217A1, “METHODS OF IMPROVING CANCER IMMUNOTHERAPY” (THE REGENTS OF THE UNIVERSITY OF CALIFORNIA, priority 2022, published 2025).
Entries after “also recorded” stand apart in the source; their conditions may differ.

Legend:
B16F10 melanoma cells = assay: B16F10 melanoma tumor volume over time; assay type: in vivo, mice; settings: omega-6 rich diet; 5 mg/kg/day via drinking water + anti-CTLA4; vs either agent alone
Description: (§1) (A) MB49 bladder cancer tumor volume over time. Following 12 days of pre-treatment with the omega-6 rich diet, tumor cells (1×10^6 MB49 bladder cancer cells) were injected subcutaneously into the mid dorsum. Once tumors reached ˜200 mm^3, treatment was initiated with anti-PD1 (200 μg Q3D), EC5026 (5 mg/kg/day via drinking water), combination anti-PD1+EC5026, or no treatment (control). […] N=3-5 mice per group. P<0.05. (B) B16F10 melanoma tumor volume over time. […]. Following 12 days of pre-treatment with the omega-6 rich diet, tumor cells (1×10^6 B16F10 melanoma cells) were injected subcutaneously into the mid dorsum. Once tumors reached ˜200 mm^3, treatment was initiated with anti-CTLA4 (200 μg 1st dose, then 100 μg Q3D), 1770 (5 mg/kg/day via drinking water), combination 1770+anti-CTLA4, or no treatment (control). […] N=4-5 mice per group.
(A) MB49 bladder cancer tumor volume over time. Following 12 days of pre-treatment with the omega-3 rich diet or control diet, tumor cells (1×10^6 MB49 bladder cancer cells) were injected subcutaneously into the mid dorsum. Once tumors reached ˜200 mm^3, treatment was initiated with either anti-PD1 (200 μg Q3D) or no treatment (control). […] N=3-5 mice per group. p<0.0001. (B) Prostate cancer (RM1) tumor volume over time. […]

oxylipin = assay: LCMS/MS oxylipin analysis of MB49 bladder cancer tumor tissue; assay type: in vivo; settings: mice on the control diet only
Description: These lipid mediators are potential biomarkers of bladder cancer and the anti-tumor response to the diets (e.g. omega-3 or omega-6 fatty acids), immunotherapy (e.g., anti-PD1), and sEH inhibitor (e.g., 5026). (A) Heatmap of LCMS/MS oxylipin analysis performed on murine MB49 bladder cancer tumor tissue. […] Tumor tissue from mice treated with the control diet only. […] Tumor tissue from mice treated with the control diet only.

[1] = tested on: MB49 bladder cancer cells; assay: Murine bladder cancer model (MB49), subcutaneous tumor growth; assay type: in vivo, mice; settings: for MB49 tumor volume, combination with anti-PD1: omega-6 rich diet, 5 mg/kg/day via drinking water + anti-PD1 200 μg Q3D, vs either agent alone, P<0.05
Text: 10^6 MB49 cells were introduced into mice, and treatment was initiated with established tumors (˜200 mm^3), seven days after tumor injection. The CTLA-4 antibody used is from BioCell, Catalog number BE0131; In VivoMAb anti-mouse CTLA-4 (CD152). See, FIG. 1A and FIG. 1B.
The mice in this study were randomized, and treatment was initiated with established tumors (˜200 mm^3), seven days after […]. See, FIG. 2A-2C; FIG. 9A-9F.
(A & B). Mice were inoculated subcutaneously with 1×10^6 MB49 cells. Treatment initiated when MB49 tumors reached ˜200 mm^3. Mice were randomized and treated with PTUPB (60 mg/kg Q3D, orally) or chemotherapy (cisplatin+gemcitabine; cisplatin=5 mg/kg, gemcitabine=75 mg/kg, Q3D). Mice were sacrificed after 16 days of treatment. n=4-5 mice/group. Gene expression levels of sEH and COX-2 in tumor tissue after 16 days of treatment. Analyzed by qPCR and normalized by GAPDH. A: **Control vs chemotherapy (p=0.0099), **PTUPB vs chemotherapy (p=0.0095); B. **Control vs chemotherapy (p=0.0072), ***PTUPB vs chemotherapy (p=0.0001). (C) Mice were inoculated subcutaneously with 1×10^6 MB49 cells. Treatment initiated when MB49 tumors reached ˜200 mm^3. Mice were randomized and treated with combinations of PTUPB (60 mg/kg Q3D, orally), anti-PD1 (200 μg Q3D), anti-CTLA4 ([…]), chemotherapy (cisplatin+gemcitabine; cisplatin=5 mg/kg, gemcitabine=75 mg/kg, Q3D). Mice were sacrificed after 16 days of treatment. n=4-5 mice/group. *p<0.05. (D and E). Gene expression levels of EGF and VEGF-C in tumor tissue after 16 days of treatment. Analyzed by qPCR and normalized by GAPDH. D: *chemotherapy vs chemotherapy+PTUPB (p=0.0136); E: **Control vs anti-CTLA4 (p=0.0012), **PTUPB vs anti-CTLA4 (p=0.0081), **anti-CTLA4 vs anti-CTLA4+PTUPB (0.0296). (F) Mice were inoculated orthotopically into the bladder wall with 5×10^5 MB49 cells. Treatment was initiated 3 days after tumor injection with PTUPB (60 mg/kg Q3D, orally). n=5 mice per group. **PTUPB vs control (p=0.0018).
as §1
FIGS. 6A-6E Dietary omega-3 supplementation inhibits tumor growth in both fast-growing and slow-growing tumor models in mice. (A) Prostate cancer (RM1) tumor growth over time. Following 12 days of pre-treatment with the omega-3 rich diet or control diet, tumor cells (1×10^5 RM1 prostate cancer cells) were injected subcutaneously into the mid dorsum. […] N=3-5 mice/group. (B) MB49 bladder cancer tumor volume over time. Following 12 days of pre-treatment with the omega-3 rich diet or control diet, tumor cells (1×10^6 MB49 bladder cancer cells) were injected subcutaneously. […] N=3-5 mice/group. […]

SMILES: CCC(=O)N1CCC(NC(=O)Nc2ccc(OC(F)(F)F)cc2)CC1 [Compound 1770]
- B16F10 melanoma tumor volume, combination with anti-CTLA4 (B16F10 melanoma cells): tended to have smaller tumors

SMILES: CC[C@H](C)C(=O)N1CCC(NC(=O)Nc2ccc(OC(F)(F)F)c(F)c2)CC1 [EC5026]
- levels of 7,8-DiHDPE, 17,18-DiHETE, and 15,16-DiHODE in MB49 bladder cancer tissue (oxylipin): prevented this increase
- levels of 15(16)-EpODE, 12(13)-EpOME, 17(18)-EpETE and 14(15)-EpETrE in MB49 bladder cancer tissue (oxylipin): prevented the drop in these metabolites, and increased levels of these metabolites compared to controls
- MB49 tumor volume, combination with anti-PD1 ([1]; 5 mg/kg/day): significantly smaller tumors
- MB49 tumor volume, combination with anti-PD1 ([1]; listed as 5026, 5 mg/kg/day): unexpected induction of tumor regression; also recorded: synergizes with immunotherapy

SMILES: NS(=O)(=O)c1ccc(-n2nc(CCCNC(=O)Nc3ccc(C(F)(F)F)cc3)cc2-c2ccccc2)cc1 [PTUPB]
- tumor growth, combination with immunotherapy (anti-CTLA-4) ([1]; 10^6 MB49 cells, established tumors (~200 mm^3), seven days after tumor injection, FIG. 1): unexpected induction of tumor regression; also recorded: enhances immunotherapy
- tumor growth, alone and with chemotherapy or immunotherapy ([1]; PTUPB 60 mg/kg Q3D orally, MB49, FIG. 9): blocks tumor growth and enhances chemotherapy and immunotherapy
- tumor growth, combination with chemotherapy (gemcitabine and cisplatin) and immunotherapy ([1]; established MB49 tumors (~200 mm^3), 16 days of treatment, FIG. 2, FIG. 9): unexpected induction of tumor regression; also recorded: induce tumor regression
